This passage reports IC50 results from US12448373B2, “Azetidinyl-acetamides as CXCR7 inhibitors” (CHEMOCENTRYX, INC., priority 2021, dated 2025).

SMILES strings stand for the structures. Where only a bound is given, the exact number is not on record here.

In this experiment the target is T1, CXCR7 (Homo sapiens, UniProt P25106).
T1 construct: expressed in transfected cells; host or cells: CHO cells (CHO-CXCR7), transgenes maintained with Hygromycin B and G418
T1 sequence (P25106 whole entry): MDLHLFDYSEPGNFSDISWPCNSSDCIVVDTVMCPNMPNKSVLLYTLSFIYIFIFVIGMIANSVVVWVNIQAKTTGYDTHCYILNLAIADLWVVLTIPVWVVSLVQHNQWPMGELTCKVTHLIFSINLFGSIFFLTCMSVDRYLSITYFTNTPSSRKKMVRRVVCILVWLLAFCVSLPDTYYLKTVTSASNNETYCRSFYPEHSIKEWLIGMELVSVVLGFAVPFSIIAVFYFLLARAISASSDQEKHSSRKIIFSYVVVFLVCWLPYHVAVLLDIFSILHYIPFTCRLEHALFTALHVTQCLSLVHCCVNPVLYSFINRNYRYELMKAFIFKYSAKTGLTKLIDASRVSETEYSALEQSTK
The experiment in a line: CXCR7 β-arrestin recruitment assay in CHO-CXCR7 cells (ProLink/EA β-galactosidase complementation), induced by human SDF-1a. Particulars: assay buffer, SDF-1a at EC50 concentration. Type of experiment: cell-based. Put shortly: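 CHO cells co-expressing ProLink-tagged CXCR7 and β-arrestin-EA were pre-plated overnight, then given compound and human SDF-1α at its same-day EC50. After 1.5 h at 37 °C, complemented β-galactosidase was read from 0.4 mM 3-carboxyumbelliferyl β-D-galactopyranoside (30 min, 37 °C; ex 360/em 465 nm). IC50 by 3-parameter fit.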
The compound `Cc1ccc(C(C)(C)NC(=O)CC2(NC(=O)c3cc(-c4ccc(F)cc4F)on3)CN([C@H]3CC[C@](C)(O)CC3)C2)cc1` [Example 1.243] registered a half-inhibitory concentration (IC50) of 0.1 to 1 µM. As for `COc1ccc(C(C)(C)NC(=O)CC2(NC(=O)c3cc(-c4ccc(F)cc4F)on3)CN([C@H]3CC[C@](C)(O)CC3)C2)cc1` [Example 1.244], the half-maximal inhibitory concentration (IC50) lay within 1 to 20 µM. Consider `Cc1nc(C(C)(C)NC(=O)CC2(NC(=O)c3cc(-c4ccc(F)cc4F)on3)CN(C3CCC4(CC3)COC4)C2)sc1C` [Example 1.245], for which the IC50 lay in the range of 0.1 to 1 µM.

The compound `Cc1ccc(C(C)(C)NC(=O)CC2(NC(=O)c3cc(-c4ccc(F)cc4F)on3)CN([C@H]3CC[C@@](C)(O)CC3)C2)c(F)c1` [Example 1.246] returned an IC50 of 0.005 to 0.1 µM. The figure for `Cc1ccc(C(C)(C)NC(=O)CC2(NC(=O)c3cc(-c4ccc(F)cc4F)on3)CN([C@H]3CC[C@](C)(O)CC3)C2)c(F)c1` [Example 1.247] is 0.1 to 1 µM; for `CC(C)(O)CN1CC(CC(=O)NC(C)(C)c2ccc(F)cc2)(NC(=O)c2cc(-c3ccc(F)cc3F)on2)C1` [Example 1.248] it is 0.1 to 1 µM.

As for `CC(C)(NC(=O)CC1(NC(=O)c2cc(-c3ccc(F)cc3F)on2)CN([C@H]2CC[C@@](C)(O)CC2)C1)c1ccc(Cl)cc1` [Example 1.249], the IC50 lay in the range of 0.005 to 0.1 µM. The figure for `CC(C)(NC(=O)CC1(NC(=O)c2cc(-c3ccc(F)cc3F)on2)CN([C@H]2CC[C@](C)(O)CC2)C1)c1ccc(Cl)cc1` [Example 1.250] is 0.1 to 1 µM; for `CC(C)(O)CN1CC(CC(=O)NC(C)(C)c2cccc(F)c2)(NC(=O)c2cc(-c3ccc(F)cc3F)on2)C1` [Example 1.251] it is 0.005 to 0.1 µM; for `CC(C)(NC(=O)CC1(NC(=O)c2cc(-c3ccc(F)cc3F)on2)CN([C@H]2CC[C@@](C)(O)CC2)C1)c1ccc(F)cc1Cl` [Example 1.252] it is 0.005 to 0.1 µM.

In the case of `CC(C)(NC(=O)CC1(NC(=O)c2cc(-c3ccc(F)cc3F)on2)CN([C@H]2CC[C@](C)(O)CC2)C1)c1ccc(F)cc1Cl` [Example 1.253], the IC50 lay within 0.005 to 0.1 µM. In the case of `CC(C)(NC(=O)CC1(NC(=O)c2cc(-c3ccc(F)cc3F)on2)CN(C2CCC3(CC2)COC3)C1)c1ccc(F)cc1F` [Example 1.254] it was 0.1 to 1 µM; in that of `CC(C)(O)CN1CC(CC(=O)NC(C)(C)c2ccccn2)(NC(=O)c2cc(-c3ccc(F)cc3F)on2)C1` [Example 1.255], 0.005 to 0.1 µM.

Consider `CC(C)(NC(=O)CC1(NC(=O)c2cc(-c3ccc(F)cc3F)on2)CN([C@H]2CC[C@@](C)(O)CC2)C1)c1ccc(F)c(F)c1` [Example 1.256], for which the concentration for half-maximal inhibition (IC50) is 0.005 to 0.1 µM.

Compound `CC(C)(NC(=O)CC1(NC(=O)c2cc(-c3ccc(F)cc3F)on2)CN([C@H]2CC[C@](C)(O)CC2)C1)c1ccc(F)c(F)c1` [Example 1.257] had an IC50 of 0.005 to 0.1 µM. In the case of `CC(C)(NC(=O)CC1(NC(=O)c2cc(-c3ccc(F)cc3F)on2)CN([C@H]2CC[C@](C)(O)CC2)C1)c1c(F)cccc1F` [Example 1.258] it was 0.1 to 1 µM; in that of `CC(C)(NC(=O)CC1(NC(=O)c2cc(-c3ccc(F)cc3F)on2)CN([C@H]2CC[C@@](C)(O)CC2)C1)c1ccc(F)cc1` [Example 1.259], 0.005 to 0.1 µM; in that of `CC(C)(NC(=O)CC1(NC(=O)c2cc(-c3ccc(F)cc3F)on2)CN([C@H]2CC[C@](C)(O)CC2)C1)c1ccc(F)cc1` [Example 1.260], 0.005 to 0.1 µM. Compound `Cc1ccc(C(C)(C)NC(=O)CC2(NC(=O)c3cc(-c4ccc(F)cc4F)on3)CN([C@H]3CC[C@@](C)(O)CC3)C2)cc1C(F)(F)F` [Example 1.261] displayed an IC50 of 0.1 to 1 µM.

`Cc1ccc(C(C)(C)NC(=O)CC2(NC(=O)c3cc(-c4ccc(F)cc4F)on3)CN([C@H]3CC[C@](C)(O)CC3)C2)cc1C(F)(F)F` [Example 1.262] registered a concentration for half-maximal inhibition (IC50) of 0.1 to 1 µM. In the case of `CC(C)(NC(=O)CC1(NC(=O)c2cc(-c3ccc(F)cc3F)on2)CN(C2CCCCC2)C1)c1ccc(F)cc1F` [Example 1.263] it was 1 to 20 µM.

With `CC(C)(O)CN1CC(CC(=O)NC(C)(C)c2ccc(F)cc2F)(NC(=O)c2cc(-c3ccc(F)cc3F)on2)C1` [Example 1.264], the 50% inhibitory concentration (IC50) fell in the range of 1 to 20 µM. Consider `COc1ccc(F)cc1C(C)(C)NC(=O)CC1(NC(=O)c2cc(-c3ccc(F)cc3F)on2)CN([C@H]2CC[C@](C)(O)CC2)C1` [Example 1.266], for which the IC50 was < 0.005 µM. In the case of `CC(C)(NC(=O)CC1(NC(=O)c2cc(-c3ccc(F)cc3F)on2)CN([C@H]2CC[C@@](C)(O)CC2)C1)c1ccccc1` [Example 1.267] it was < 0.005 µM; in that of `CC(C)(NC(=O)CC1(NC(=O)c2cc(-c3ccc(F)cc3F)on2)CN([C@H]2CC[C@](C)(O)CC2)C1)c1ccccc1` [Example 1.268], < 0.005 µM; in that of `CC(C)(NC(=O)CC1(NC(=O)c2cc(-c3ccc(F)cc3F)on2)CN(C2CCC3(CC2)CC3)C1)c1ccccn1` [Example 1.269], 0.005 to 0.1 µM. The figure for `CC(C)(NC(=O)CC1(NC(=O)c2cc(-c3ccc(F)cc3F)on2)CN(C2CCCCC2)C1)c1ncccn1` [Example 1.270] is 0.005 to 0.1 µM; for `CC(C)(NC(=O)CC1(NC(=O)c2cc(-c3ccc(F)cc3F)on2)CN(C2CCCCC2)C1)c1cccc(C(F)(F)F)c1` [Example 1.271] it is 0.1 to 1 µM; for `COc1cccc(C(C)(C)NC(=O)CC2(NC(=O)c3cc(-c4ccc(F)cc4F)on3)CN(C3CCCCC3)C2)n1` [Example 1.272] it is 0.005 to 0.1 µM.

`Cn1cc(C(C)(C)NC(=O)CC2(NC(=O)c3cc(-c4ccc(F)cc4F)on3)CN(C3CCCCC3)C2)cn1` [Example 1.273] showed a half-maximal inhibitory concentration (IC50) of 0.005 to 0.1 µM. In the case of `CC(C)(NC(=O)CC1(NC(=O)c2cc(-c3ccc(F)cc3F)on2)CN([C@@H]2CCCCC2(C)C)C1)c1ccccn1` [Example 1.274] it was < 0.005 µM. In the case of `CC(C)(NC(=O)CC1(NC(=O)c2cc(-c3ccc(F)cc3F)on2)CN([C@H]2CCCCC2(C)C)C1)c1ccccn1` [Example 1.275] it was < 0.005 µM. In the case of `CC(C)(NC(=O)CC1(NC(=O)c2cc(-c3ccc(F)cc3F)on2)CN(C2CCCCC2)C1)c1nccs1` [Example 1.276] it was 0.005 to 0.1 µM; in that of `CC1(O)CCC(N2CC(CC(=O)NC3(c4ncccn4)CC3)(NC(=O)c3cc(-c4ccc(F)cc4F)on3)C2)CC1` (stereo not drawn) [Example 1.277], < 0.005 µM. In turn, `C[C@]1(O)CC[C@@H](N2CC(CC(=O)NCc3c[nH]c4ccccc34)(NC(=O)c3cc(-c4ccc(F)cc4F)on3)C2)CC1` [Example 1.278] had an IC50 of 1 to 20 µM. In the case of `C[C@]1(O)CC[C@H](N2CC(CC(=O)NCc3c[nH]c4ccccc34)(NC(=O)c3cc(-c4ccc(F)cc4F)on3)C2)CC1` [Example 1.279] it was 0.005 to 0.1 µM; in that of `CN1CCC(N2CC(CC(=O)NC(C)(C)c3ccccn3)(NC(=O)c3cc(-c4ccc(F)cc4F)on3)C2)CC1` [Example 1.280], 0.1 to 1 µM. `Cc1ccc(C(C)(C)NC(=O)CC2(NC(=O)c3cc(-c4ccc(F)cc4F)on3)CN(C3CCCCC3)C2)cn1` [Example 1.281] gave an IC50 of 0.005 to 0.1 µM. In the case of `O=C(CC1(NC(=O)c2cc(-c3ccc(F)cc3F)on2)CN(C2CCCCC2)C1)N[C@@H](C(=O)O)c1ccccc1` [Example 1.282] it was 1 to 20 µM; in that of `O=C(CC1(NC(=O)c2cc(-c3ccc(F)cc3F)on2)CN(C2CCCCC2)C1)N[C@H](C(=O)O)c1ccccc1` [Example 1.283], 1 to 20 µM; in that of `CC(C)(NC(=O)CC1(NC(=O)c2cc(-c3ccc(F)cc3F)on2)CN(C2CCCCC2)C1)c1ccc(Cl)nc1` [Example 1.284], 0.005 to 0.1 µM.

`COC1(C)CCC(N2CC(CC(=O)NC(C)(C)c3ccccn3)(NC(=O)c3cc(-c4ccc(F)cc4F)on3)C2)CC1` (stereo not drawn) [Example 1.285] showed a concentration for half-maximal inhibition (IC50) of 0.005 to 0.1 µM. In the case of `CC(C)(NC(=O)CC1(NC(=O)c2cc(-c3ccc(F)cc3F)on2)CN([C@H]2CCC[C@@H](O)C2)C1)c1ccccn1` [Example 1.286] it was 0.005 to 0.1 µM; in that of `CC(C)(NC(=O)CC1(NC(=O)c2cc(-c3ccc(F)cc3F)on2)CN([C@H]2CC[C@](C)(O)CC2)C1)c1ccc(F)cc1F` [Example 1.287], 0.005 to 0.1 µM.

For the compound `CC(C)(NC(=O)CC1(NC(=O)c2cc(-c3ccc(F)cc3F)on2)CN([C@H]2CC[C@@](C)(O)CC2)C1)c1ccc(F)cc1F` [Example 1.288], the IC50 fell in the range of 0.005 to 0.1 µM. Consider `CC(C)(NC(=O)CC1(NC(=O)c2cc(-c3ccc(F)cc3F)on2)CN([C@H]2CC[C@](C)(O)CC2)C1)c1cccc(F)c1` [Example 1.289], for which the 50% inhibitory concentration (IC50) is < 0.005 µM.

Take `CC(C)(NC(=O)CC1(NC(=O)c2cc(-c3ccc(F)cc3F)on2)CN([C@H]2CC[C@@](C)(O)CC2)C1)c1cccc(F)c1` [Example 1.290]: the IC50 is < 0.005 µM. In the case of `CC(C)(NC(=O)CC1(NC(=O)c2cc(-c3ccc(F)cc3F)on2)CN([C@H]2CC[C@](C)(O)CC2)C1)c1ccccc1C(F)(F)F` [Example 1.291] it was < 0.005 µM. The figure for `CC(C)(NC(=O)CC1(NC(=O)c2cc(-c3ccc(F)cc3F)on2)CN([C@H]2CC[C@@](C)(O)CC2)C1)c1ccccc1C(F)(F)F` [Example 1.292] is < 0.005 µM. The figure for `Cc1cccc(C(C)(C)NC(=O)CC2(NC(=O)c3cc(-c4ccc(F)cc4F)on3)CN(C3CCCCC3)C2)n1` [Example 1.293] is < 0.005 µM; for `CC(C)(NC(=O)CC1(NC(=O)c2cc(-c3ccc(F)cc3F)on2)CN(C2CCC3(CC2)COC3)C1)c1ccccn1` [Example 1.294] it is < 0.005 µM. `COC[C@@H](NC(=O)CC1(NC(=O)c2cc(-c3ccc(F)cc3F)on2)CN(C2CCCCC2)C1)c1ccccc1` [Example 1.295] registered a half-maximal inhibitory concentration (IC50) of 0.1 to 1 µM. In the case of `CC(C)(NC(=O)CC1(NC(=O)c2cc(-c3ccc(F)cc3F)on2)CN(C2CCC3(CCC3)CC2)C1)c1ccccn1` [Example 1.296] it was 0.1 to 1 µM; in that of `CC(C)(NC(=O)CC1(NC(=O)c2cc(-c3ccc(F)cc3F)on2)CN(C2CCCCC2)C1)c1cccc(F)n1` [Example 1.297], < 0.005 µM.

As usually defined, the IC50 is the concentration at which inhibition is half-maximal. The low end stands for greater potency in that assay, the high end for weaker potency in that assay.
